System: 320 GPCR Tango constructs
Test: PRESTO-Tango GPCRome counter-screen (beta-arrestin recruitment) in transiently transfected HTLA cells
Assay type: cell-based
Conditions: 10 μM compound, 320 GPCRs
Experimental: The PRESTO-Tango GPCRome assay, which measures G-protein coupled receptors (GPCR) mediated beta-arrestin recruitment, was used to perform a HTS of related GPCRs to study specificity and selectivity of the RXFP2 agonists. A total of 320 GPCR Tango constructs were tested. Each of the GPCR constructs used in the assay contained a FLAG tag, the GPCR gene of interest, a Vasopressin 2 C-terminal tail, the TEV protease cleavage site, and the tetracycline-controlled transactivator (tTA) transcription factor. The assay was performed using transiently transfected HTLA cells that stably express the beta-arrestin2-TEV protease fusion protein and a luciferase reporter gene under the control of the tTA transcription factor. Ligand activation of the transfected GPCR construct induces beta-arrestin translocation to the GPCR, where the tobacco etch virus (TEV) protease cleaves the tTA transcription factor, causing activation of luciferase transcription in the nucleus. Thus, luciferase activity in these cells is proportional to beta-arrestin translocation activity. For this assay, HTLA cells were seeded in Poly-L-Lys (PLL)-coated 384-well white clear-bottom plates at 10,000 cell/well in 40 μl/well DMEM supplemented with 10% FBS. […] Plates were incubated for 20 minutes at room temperature protected from light and the luminescence signal was read on a MicroBeta counter (PerkinElmer, Waltham, MA). […]

Compound: O=C1Nc2ccc(-c3cc(C(F)(F)F)cc(C(F)(F)F)c3)cc2C(=O)N2CCN(C(=O)COc3ccc(OC(F)(F)F)cc3Br)C[C@@H]12 [Example 158, (S)-8-(3,5-Bis(trifluoromethyl)phenyl)-2-(2-(2-bromo-4-(trifluoromethoxy)phenoxy)acetyl)-1,3,4,12a-tetrahydrobenzo[e]pyrazino[1,2-a][1,4]diazepine-6,12 (2H, 11H)-dione]
- GPCR agonist hits (minimum 3.0-fold RLU of basal): very few GPCR hits
